Measurements taken from patent publication USRE42274E1, “Cyclic peptide CXCR4 antagonists” (Eli Lilly and Company, priority 2007, dated 2011).
Counter-ions that a name gives are not always drawn. Each block holds one compound with its values, some of them ahead of it. Numbered stars: 1 amine (or outer) side, 2 acyl side, 3 side chain; on linkers, the order of the positions; unused ones are H or OH. Bridge positions count the residues as written; N and C are the ends. Square brackets hold non-standard residues; d marks the D form. Peptide text beside a SMILES is read from it. * marks the point of attachment. Lys(iPr-d6) = deuterated Lys(iPr), [2H]C([2H])([2H])C(NCCCC[C@H](N[*:1])C(=O)[*:2])C([2H])([2H])[2H]; 2Nal = N[C@@H](Cc1ccc2ccccc2c1)C(=O)O; Lys(iPr) = CC(C)NCCCC[C@H](N)C(=O)O; Lys(Me2) = CN(C)CCCC[C@H](N)C(=O)O; Dap = NC[C@H](N)C(=O)O; Bz = O=C(c1ccccc1)*

Key:
CXCR4 [1] = target: T1, CXCR4 (Homo sapiens, UniProt P61073); assay: Human CXCR4/125I-SDF-1α binding inhibition assay; set-up: human leukemia CCRF-CEM cells (ATCC CCL 119) expressing endogenous CXCR4 are employed; endogenous in cells; host or cells: CCRF-CEM (ATCC CCL 119), whole cells; details: for Ki: CCRF-CEM cells expressing endogenous CXCR4, Ki calculated from IC50
T1 sequence (P61073 whole entry): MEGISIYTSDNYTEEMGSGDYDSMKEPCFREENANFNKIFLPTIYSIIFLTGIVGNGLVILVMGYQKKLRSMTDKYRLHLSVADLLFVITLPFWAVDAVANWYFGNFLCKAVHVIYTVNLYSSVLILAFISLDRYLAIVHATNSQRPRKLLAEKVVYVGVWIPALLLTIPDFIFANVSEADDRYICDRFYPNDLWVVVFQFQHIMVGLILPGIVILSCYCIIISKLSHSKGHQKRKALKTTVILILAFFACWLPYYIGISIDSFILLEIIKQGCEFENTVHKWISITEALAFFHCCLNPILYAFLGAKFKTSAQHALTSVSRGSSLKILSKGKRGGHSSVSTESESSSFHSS
Method: “Ki” values are calculated using IC50 values determined in the CXCR4/^125I-SDF-1α binding assay described below by employing equation 7.22 of Enzymes, A Practical Introduction to Structure, Mechanism, and Data Analysis, Robert A. Copeland, Wiley-VCH, New York, 1996, page 207.
Human CXCR4/^125I-SDF-1α Binding Inhibition Assay
SDF-1 binding to CXCR4 is the first step in activating the CXCR4 intracellular signalling pathway. To determine if a compound can block the interaction of SDF-1 and CXCR4, human leukemia CCRF-CEM cells (ATCC CCL 119) expressing endogenous CXCR4 are employed in an ^125I-labeled SDF-1α binding assay. The assay is performed in a 96-well U-bottom, non-treated polystyrene plate (Corning Incorporated, Costar, No. 3632). The binding assay buffer is prepared with RPMI 1640 medium (Gibco, Grand Island, N.Y.) containing 10 mM HEPES, pH 7.5, and 0.2% BSA. Briefly, 200 μL reaction mixtures containing 300 pM SDF ligand (60 pM ^125I-SDF-1α (Perkin Elmer) and 240 pM cold SDF-1α (R&D Systems), different concentrations of the test compound in assay buffer, 100,000 human CCRF-CEM cells, and 0.5 mg SPA beads (Wheatgerm agglutinin beads; Amersham) are incubated at room temperature for 2 hr. Plates are then counted in a 1450 Microbeta Liquid Scintillation and Luminescence Counter (Wallac) in SPA mode. CXCR4 antagonists decrease the bound radioactivity in this assay in a dose-dependent manner. The inhibitory potency (K1 or IC50) of a test compound is calculated using GraphPad Prism software, based on the dose-dependent decrease of bound radioactivity.

CXCR4 [2] = target: T1, CXCR4; assay: Chemotaxis assay, SDF-1α-induced migration of U937 cells; type: cell-based; set-up: endogenous in cells; details: SDF-1α 10 ng/mL
Excerpt: CXCR4/SDF-1 interaction regulates migration (chemotaxis) of cells bearing CXCR4 on their surface. To determine the antagonist and cellular activities of a test compound, a chemotaxis assay using human histiocytic lymphoma U937 cells (ATCC CRL 1593) that express endogenous CXCR4 are employed. Briefly, U937 cells, grown in DMEM medium (Gibco, Grand Island, N.Y.) containing 10% FBS, 1% MEM sodium pyruvate (Gibco), 1% MEM nonessential amino acids (Gibco), and 1% GlutaMAX 1 (Gibco), are harvested and washed once with chemotaxis assay buffer prepared with 1×RPMI medium (Gibco) containing 10 mM HEPES, pH 7.5, and 0.3% BSA. After washing, cells are resuspended in assay buffer at a concentration of 5×10^6 cells/mL. The assay is performed in a 96-well ChemoTx plate (NeuroProbe) according to the manufacturer's directions. […] The plate is then incubated for 60 min at 37° C., and the migrated cells are detected by measuring the absorbance at 492 nm with a Tecan Spectrafluor Plus Microplate Reader (Salzburg, Austria). CXCR4 antagonists inhibit cell migration, reducing the absorbance reading. The inhibitory potency (IC50) of a test compound in this assay is calculated using GraphPad Prism software, based on the dose-dependent decrease of absorbance at 492 nm.

Bioavailability in rats = details: rat, in vivo, sc, subcutaneous
Method: (§1) Pharmacologic properties such as compound bioavailability, in vivo metabolic stability, and pharmacokinetic/pharmacodynamic properties can be determined by methods well known in the art of drug development. […] For example, in mice, the half-life (T½) of the compound of Example 58 is about 3 hours. With respect to pharmacodynamic properties, preferred compounds induce prolonged neutrophil and white blood cell mobilization in mice. For example, the compound of Example 25 induces a significant increase of neutrophils and white blood cells in peripheral blood for at least 6 hours after single dose subcutaneous administration at 5 mg/kg in mice.

[3] = target: T2, human chemokine receptor CXCR2 (Homo sapiens, UniProt P25025); assay: Chemokine receptor binding selectivity assay, ligand binding
T2 sequence (P25025 1-360): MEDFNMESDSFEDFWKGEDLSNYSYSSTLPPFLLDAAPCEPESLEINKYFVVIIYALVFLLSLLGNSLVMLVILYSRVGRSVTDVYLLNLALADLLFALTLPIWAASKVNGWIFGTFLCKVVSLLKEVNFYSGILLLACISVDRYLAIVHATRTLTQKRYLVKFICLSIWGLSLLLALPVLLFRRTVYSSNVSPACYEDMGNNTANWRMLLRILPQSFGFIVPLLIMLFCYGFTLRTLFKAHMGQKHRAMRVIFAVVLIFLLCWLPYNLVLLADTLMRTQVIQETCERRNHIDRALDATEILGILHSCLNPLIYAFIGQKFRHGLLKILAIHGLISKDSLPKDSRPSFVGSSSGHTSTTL
Excerpt: Chemokine Receptor Binding Selectivity Assays
The binding selectivity of the present compounds for the CXCR4 receptor compared to that for other chemokine receptors, such as human CCR1, CCR2, CXCR2, or CXCR3, and other G-protein-coupled receptors, can be assessed in cells transfected with nucleic acid encoding and expressing such receptors, or in cells in which such receptors are endogenously expressed. Whole cells or membrane fragments can be used to assess competition of test compounds with the respective ligands for these receptors in a manner similar to that described above for the CXCR4/^125I-SDF-1α binding inhibition assay.

[4] = In vivo metabolic stability in dog; details: up to 24 hours after administration
Method: as §1

[5] = In vivo metabolic stability in monkey; details: up to 24 hours after administration
Method: as §1

[6] = test system: neutrophils and white blood cells in peripheral blood; assay: Compound-induced white blood cell and neutrophil mobilization in C57BL/6 mice; type: in vivo, mouse; details: 5 mg/kg
Excerpt: Compound-Induced White Blood Cell and Neutrophil Mobilization in C57BL/6 Mice
Stem cells within the bone marrow actively maintain continuous production of all mature blood cell lineages throughout life. Bone marrow is the primary site for white blood cell (WBC)/neutrophil production and release into the circulation. The CXCR4/SDF-1 axis appears to be critical for the retention and release of WBCs, neutrophils, and hematopoietic progenitor cells in the bone marrow, and interruption of CXCR4/SDF-1 interaction in bone marrow leads to an increase of these cells in peripheral blood. A short-term mouse WBC/neutrophil mobilization model can be used to determine the in vivo target-modulating activity of a test compound. Briefly, pathogen-free 5-6 week old female C57BL/6 mice (Taconic) are housed for at least one week prior to assay. Animals are allowed continuous access to sterilized rodent chow and acidified water. Groups of 5 mice are injected subcutaneously with test compounds in saline, or with saline control, and then sacrificed by CO2 asphyxiation and cervical dislocation at various time points post compound administration. Peripheral blood is collected by cardiac puncture using EDTA-coated syringes and tubes. […] Total WBCs, neutrophils, and lymphocytes in the peripheral blood are recorded. […]

[7] = test system: human non-Hodgkin's lymphoma Namalwa cells; assay: Anti-tumor activity in a SCID/Namalwa xenograft model; type: in vivo, mouse; details: 1 mg/kg BID, subcutaneous
Excerpt: Anti-Tumor Activity in a SCID/Namalwa Xenograft Model
SDF-1/CXCR4 interaction appears to play an important role in multiple stages of tumorigenesis, including tumor growth, invasion, angiogenesis, and metastasis. To evaluate in vivo anti-tumor activity of a test compound, a tumor xenograft model using NOD/SCID mice (Jackson Laboratories) and human non-Hodgkin's lymphoma Namalwa cells (ATCC CRL 1432) are employed. Briefly, 200,000 Namalwa cells mixed with matrigel (1:1) are implanted subcutaneously into the rear flank of the animals. The implanted tumor cells grow as solid tumors, the dimensions of which can be continuously monitored and measured using a caliper. To determine the in vivo efficacy of a test compound in this model, one can treat animals (10/group) with different doses of test compounds dissolved in saline or PBS, beginning 48 hours post tumor cell implantation. Compounds are dosed subcutaneously, and tumor volume and body weight are determined every 2 or 3 days. Studies generally last 3-4 weeks, depending on tumor growth. The anti-tumor growth activity of a test compound is determined by the percent reduction in tumor volume in treatment groups compared to tumor volume in control groups treated with vehicle alone.

Compound: CC(=O)N[C@H]1CNC(=O)CC[C@@H](C(=O)N[C@@H](CCCNC(=N)N)C(N)=O)NC(=O)CNC(=O)[C@H](Cc2ccc3ccccc3c2)NC(=O)[C@@H](CCCNC(=N)N)NC(=O)[C@H](CCCNC(=N)N)NC(=O)[C@H](Cc2ccc(O)cc2)NC1=O [Example 1, Ac-cyclo[Dap-Tyr-Arg-DArg-2Nal-Gly-Glu]-Arg-NH2] (Ac-[Dap]YR[dR][2Nal]GER-NH2; lactam 1-7)
Ki (CXCR4 [1]): 3.45 nM

Compound: cyclo[Gly-Tyr-Lys(iPr)-DArg-2Nal-Gly-DGlu]-Arg-NH2 (GY[Lys(iPr)][dR][2Nal]G[dE]R-NH2; lactam N-7) [Example 25]
duration of significant increase of neutrophils and white blood cells in peripheral blood ([6]; single dose subcutaneous, mice): at least 6 hours

Compound: cyclo[Gly-Tyr-Lys(iPr)-DArg-2Nal-Gly-DGlu]-NH2 (GY[Lys(iPr)][dR][2Nal]G[dE]-NH2; lactam N-7; SMILES CC(C)NCCCC[C@@H]1NC(=O)[C@H](Cc2ccc(O)cc2)NC(=O)CNC(=O)CC[C@H](C(N)=O)NC(=O)CNC(=O)[C@H](Cc2ccc3ccccc3c2)NC(=O)[C@@H](CCCNC(=N)N)NC1=O) [Example 26]
tumor growth inhibition [7]: significantly inhibit tumor growth

Compound: cyclo[Gly-Tyr-Lys(iPr)-DArg-2Nal-Gly-Glu]-Arg-NH2 (GY[Lys(iPr)][dR][2Nal]GER-NH2; lactam N-7) [Example 39]
average neutrophil ratio (neutrophil increase in treatment group vs. saline control group) ([6]; 3 hours after compound administration, subcutaneous): 4.6

Second part, the compound after the results:

IC50 (CXCR4 [2]): 2.05 nM
Compound: CN(C)CCCC[C@@H]1NC(=O)[C@H](Cc2ccc(O)cc2)NC(=O)[C@@H](NC(=O)c2ccccc2)CC(=O)NC[C@@H](C(=O)N[C@@H](CCCNC(=N)N)C(N)=O)NC(=O)CNC(=O)[C@H](Cc2ccc3ccccc3c2)NC(=O)[C@@H](CCCNC(=N)N)NC1=O [Example 19, Bz-cyclo[Asp-Tyr-Lys(Me2)-DArg-2Nal-Gly-Dap]-Arg-NH2] (Bz-DY[Lys(Me2)][dR][2Nal]G[Dap]R-NH2; lactam 1-7)

bioavailability (Bioavailability in rats): ~100%
Compound: CCNC(=O)[C@H](CCCNC(=N)N)NC(=O)[C@H]1CCC(=O)NCC(=O)N[C@@H](Cc2ccc(O)cc2)C(=O)N[C@@H](CCCCNC(C)C)C(=O)N[C@H](CCCNC(=N)N)C(=O)N[C@@H](Cc2ccc3ccccc3c2)C(=O)NCC(=O)N1 [Example 44, cyclo[Gly-Tyr-Lys(iPr)-DArg-2Nal-Gly-DGlu]-Arg-NHEt] (GY[Lys(iPr)][dR][2Nal]G[dE]R-NHEt; lactam N-7)

IC50 (CXCR4 [2]): 0.171 nM
Ki (CXCR4 [1]): 0.285 nM
Compound: CC(C)NCCCC[C@@H]1NC(=O)[C@H](Cc2ccc(O)cc2)NC(=O)[C@@H](C)NC(=O)CC[C@H](C(N)=O)NC(=O)CNC(=O)[C@H](Cc2ccc3ccccc3c2)NC(=O)[C@@H](CCCNC(=N)N)NC1=O [Example 50, cyclo[DAla-Tyr-Lys(iPr)-DArg-2Nal-Gly-DGlu]-NH2] ([dA]Y[Lys(iPr)][dR][2Nal]G[dE]-NH2; lactam N-7)

Ki [3]: > 73000 nM
metabolites in plasma and urine [4]: no detectable metabolites
metabolites in plasma and urine [5]: no detectable metabolites
Compound: CC(C)NCCCC[C@H](NC(=O)[C@H]1CCC(=O)N[C@@H](Cc2ccccc2)C(=O)N[C@@H](Cc2ccc(O)cc2)C(=O)N[C@@H](CCCCNC(C)C)C(=O)N[C@H](CCCNC(=N)N)C(=O)N[C@@H](Cc2ccc3ccccc3c2)C(=O)NCC(=O)N1)C(N)=O [Example 57a, cyclo[Phe-Tyr-Lys(iPr)-DArg-2Nal-Gly-DGlu]-Lys (iPr)-NH2.acetic acid salt] (FY[Lys(iPr)][dR][2Nal]G[dE][Lys(iPr)]-NH2; lactam N-7)

Ki (CXCR4 [1]): 0.096 nM
Compound: CC(C)NCCCC[C@@H]1NC(=O)[C@H](Cc2ccc(O)cc2)NC(=O)CNC(=O)CC[C@H](C(=O)N[C@@H](CCCCNC(C)C)C(=O)NCC(=O)N[C@@H](Cc2ccc3ccccc3c2)C(N)=O)NC(=O)CNC(=O)[C@H](Cc2ccc3ccccc3c2)NC(=O)[C@@H](CCCNC(=N)N)NC1=O [Example 75, cyclo[Gly-Tyr-Lys(iPr)-DArg-2Nal-Gly-DGlu]-Lys (iPr)-Gly-2Nal-NH2] (GY[Lys(iPr)][dR][2Nal]G[dE][Lys(iPr)]G[2Nal]-NH2; lactam N-7)

target receptor affinity compared to the non-labeled counterpart (CXCR4 [1]; deuterium-labeled peptide vs non-labeled counterpart): identical target receptor affinity
Compound: cyclo[Phe-Tyr-Lys(iPr-d6)-DArg-2Nal-Gly-DGlu]-Lys(iPr-d6)-NH2 (FY[Lys(iPr-d6)][dR][2Nal]G[dE][Lys(iPr-d6)]-NH2; lactam N-7) [Example 89]
